Source: the supplement of paper PMC10627819

Tests used:
[1] = tested on: S. aureus DSM 20231; assay: fitness (endpoint OD595 vs no drug) (fraction); higher = more growth
Outline: (§1)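 Cultures at OD595 0.01 were dispensed into 384-well plates in TSB, LB Lennox or CY and incubated at 37 °C. Every 30 min for 14 h, OD595 was read and corrected by the first reading. Fitness is the optical density at entry into stationary phase relative to the robust mean of no-drug control wells, capped at 1.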

[2] = tested on: S. aureus Newman; assay: as above
Outline: as §1

[3] = tested on: S. pneumoniae D39V; assay: as above
Outline: as §1

[4] = tested on: B. subtilis 168; assay: Bliss interaction score (quartile over a dose matrix) (fitness difference); higher = more antagonism (negative = synergy)
Outline: (§2)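 Quartiles of the Bliss score were taken over technical, biological and donor/recipient replicates. That score is observed fitness minus the product of the single-drug fitness values, which were inferred from combination data. Fitness itself is OD595 at entry into stationary phase divided by the plate's robust no-drug mean, with a cap at 1.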

[5] = tested on: S. aureus DSM 20231; assay: as above
Outline: as §2

[6] = tested on: S. aureus Newman; assay: as above
Outline: as §2

[7] = tested on: S. pneumoniae D39V; assay: as above
Outline: as §2
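Wherever Bliss interaction score (quartile over a dose matrix) is given: first quartile when negative (synergy) and third quartile when positive (antagonism).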

CC1(C)S[C@@H]2[C@H](NC(=O)[C@H](N)c3ccc(O)cc3)C(=O)N2[C@H]1C(=O)O [Amoxicillin] + COc1ccc(C[C@H](N)C(=O)N[C@H]2[C@@H](O)[C@H](n3cnc4c(N(C)C)ncnc43)O[C@@H]2CO)cc1 [Puromycin]
Conditions	fitness
[1], first compound 0.0625 µg/mL, partner 0.39 µg/mL	0.53
[1], first compound 0.0625 µg/mL, partner 0.78 µg/mL	0.566
[1], first compound 0.0625 µg/mL, partner 1.56 µg/mL	0.517
[1], first compound 0.125 µg/mL, partner 0.39 µg/mL	0.397
[1], first compound 0.125 µg/mL, partner 0.78 µg/mL	0.448
[1], first compound 0.25 µg/mL, partner 0.39 µg/mL	0.199
[1], first compound 0.25 µg/mL, partner 0.78 µg/mL	0.133
[1], first compound 0.25 µg/mL, partner 1.56 µg/mL	0.0396
[2], first compound 0.0625 µg/mL, partner 0.39 µg/mL	0.874
[2], first compound 0.0625 µg/mL, partner 0.78 µg/mL	0.879
[2], first compound 0.0625 µg/mL, partner 1.56 µg/mL	0.9
[2], first compound 0.125 µg/mL, partner 0.39 µg/mL	0.904
[2], first compound 0.125 µg/mL, partner 0.78 µg/mL	0.882
[2], first compound 0.125 µg/mL, partner 1.56 µg/mL	0.899
[2], first compound 0.25 µg/mL, partner 0.39 µg/mL	0.813
[3], first compound 0.0008 µg/mL, partner 1 µg/mL	0.965
[3], first compound 0.0008 µg/mL, partner 2 µg/mL	0.953
[3], first compound 0.0008 µg/mL, partner 4 µg/mL	0.88
[3], first compound 0.0015 µg/mL, partner 1 µg/mL	≥ 1
[3], first compound 0.0015 µg/mL, partner 2 µg/mL	≥ 1
[3], first compound 0.0015 µg/mL, partner 4 µg/mL	0.954
[3], first compound 0.003 µg/mL, partner 1 µg/mL	≥ 1
[3], first compound 0.003 µg/mL, partner 2 µg/mL	0.962
[3], first compound 0.003 µg/mL, partner 4 µg/mL	0.891

one replicate
Conditions	fitness
[1], first compound 0.0625 µg/mL, partner 3.12 µg/mL	0.58
[1], first compound 0.0625 µg/mL, partner 6.24 µg/mL	0.293
[1], first compound 0.125 µg/mL, partner 3.12 µg/mL	0.417
[1], first compound 0.125 µg/mL, partner 6.24 µg/mL	0.0695
[1], first compound 0.25 µg/mL, partner 3.12 µg/mL	0.0126
[1], first compound 0.25 µg/mL, partner 6.24 µg/mL	0.0079
[1], first compound 0.5 µg/mL, partner 0.39 µg/mL	0.0239
[1], first compound 0.5 µg/mL, partner 0.78 µg/mL	0.0124
[1], first compound 0.5 µg/mL, partner 1.56 µg/mL	0.0417
[3], first compound 0.006 µg/mL, partner 1 µg/mL	0.617
[3], first compound 0.006 µg/mL, partner 2 µg/mL	0.685
[3], first compound 0.006 µg/mL, partner 4 µg/mL	0.612

Conditions	Bliss interaction score
[4]	0.0627
[5]	0.0606
[6]	0.0595
[7]	0.277

CC1(C)S[C@@H]2[C@H](NC(=O)[C@H](N)c3ccc(O)cc3)C(=O)N2[C@H]1C(=O)O [Amoxicillin] + COc1cccc2c1C(=O)c1c(O)c3c(c(O)c1C2=O)C[C@@](O)(C(=O)CO)C[C@@H]3O[C@H]1C[C@H](N)[C@H](O)[C@H](C)O1 [Doxorubicin]
Conditions	fitness
[1], first compound 0.0625 µg/mL, partner 0.625 µg/mL	0.541
[1], first compound 0.0625 µg/mL, partner 1.25 µg/mL	0.511
[1], first compound 0.0625 µg/mL, partner 2.5 µg/mL	0.493
[1], first compound 0.125 µg/mL, partner 0.625 µg/mL	0.443
[1], first compound 0.125 µg/mL, partner 1.25 µg/mL	0.423
[1], first compound 0.125 µg/mL, partner 2.5 µg/mL	0.461
[1], first compound 0.25 µg/mL, partner 0.625 µg/mL	0.187
[1], first compound 0.5 µg/mL, partner 0.625 µg/mL	0.0064
[1], first compound 0.5 µg/mL, partner 1.25 µg/mL	0
[1], first compound 0.5 µg/mL, partner 2.5 µg/mL	0.012
[2], first compound 0.0625 µg/mL, partner 0.625 µg/mL	0.756
[2], first compound 0.0625 µg/mL, partner 1.25 µg/mL	0.738
[2], first compound 0.0625 µg/mL, partner 2.5 µg/mL	0.686
[2], first compound 0.125 µg/mL, partner 0.625 µg/mL	0.774
[2], first compound 0.125 µg/mL, partner 1.25 µg/mL	0.742
[2], first compound 0.125 µg/mL, partner 2.5 µg/mL	0.79
[2], first compound 0.25 µg/mL, partner 0.625 µg/mL	0.729
[2], first compound 0.25 µg/mL, partner 1.25 µg/mL	0.735
[2], first compound 0.25 µg/mL, partner 2.5 µg/mL	0.712
[3], first compound 0.0008 µg/mL, partner 0.25 µg/mL	0.961
[3], first compound 0.0008 µg/mL, partner 0.5 µg/mL	0.941
[3], first compound 0.0008 µg/mL, partner 1 µg/mL	0.882
[3], first compound 0.0015 µg/mL, partner 0.25 µg/mL	0.892
[3], first compound 0.0015 µg/mL, partner 0.5 µg/mL	0.855
[3], first compound 0.0015 µg/mL, partner 1 µg/mL	0.921
[3], first compound 0.003 µg/mL, partner 0.25 µg/mL	0.838
[3], first compound 0.003 µg/mL, partner 0.5 µg/mL	0.837
[3], first compound 0.003 µg/mL, partner 1 µg/mL	0.788

[3], first compound 0.006 µg/mL, one replicate
Conditions	fitness
partner 0.25 µg/mL	0.317
partner 0.5 µg/mL	0.314
partner 1 µg/mL	0.399

Conditions	Bliss interaction score
[4]	0.0583
[5]	0.0943
[6]	-0.0449
[7]	-0.071

CC1(C)S[C@@H]2[C@H](NC(=O)[C@H](N)c3ccc(O)cc3)C(=O)N2[C@H]1C(=O)O [Amoxicillin] + C[C@@H]1O[C@@H]1P(=O)(O)O [Fosfomycin]
Conditions	fitness
[1], first compound 0.0625 µg/mL, partner 0.781 µg/mL	0.469
[1], first compound 0.0625 µg/mL, partner 1.562 µg/mL	0.369
[1], first compound 0.0625 µg/mL, partner 3.124 µg/mL	0.0511
[1], first compound 0.125 µg/mL, partner 0.781 µg/mL	0.278
[1], first compound 0.125 µg/mL, partner 1.562 µg/mL	0.0267
[1], first compound 0.125 µg/mL, partner 3.124 µg/mL	0.0388
[1], first compound 0.25 µg/mL, partner 0.781 µg/mL	0.0416
[1], first compound 0.25 µg/mL, partner 1.562 µg/mL	0.0638
[1], first compound 0.25 µg/mL, partner 3.124 µg/mL	0.038
[2], first compound 0.0625 µg/mL, partner 0.781 µg/mL	0.612
[2], first compound 0.0625 µg/mL, partner 1.562 µg/mL	0.506
[2], first compound 0.125 µg/mL, partner 0.781 µg/mL	0.597
[2], first compound 0.125 µg/mL, partner 3.124 µg/mL	0.185
[2], first compound 0.25 µg/mL, partner 0.781 µg/mL	0.567
[2], first compound 0.25 µg/mL, partner 3.124 µg/mL	0.096
[3], first compound 0.0008 µg/mL, partner 1.25 µg/mL	0.938
[3], first compound 0.0008 µg/mL, partner 2.5 µg/mL	0.893
[3], first compound 0.0008 µg/mL, partner 5 µg/mL	0.803
[3], first compound 0.0015 µg/mL, partner 1.25 µg/mL	0.914
[3], first compound 0.0015 µg/mL, partner 2.5 µg/mL	0.887
[3], first compound 0.0015 µg/mL, partner 5 µg/mL	0.672
[3], first compound 0.003 µg/mL, partner 1.25 µg/mL	0.877
[3], first compound 0.003 µg/mL, partner 2.5 µg/mL	0.834
[3], first compound 0.003 µg/mL, partner 5 µg/mL	0.531

fitness, one replicate
Conditions	partner 0.781 µg/mL	partner 1.25 µg/mL	partner 1.562 µg/mL	partner 2.5 µg/mL	partner 3.124 µg/mL	partner 5 µg/mL
[1], first compound 0.5 µg/mL	0.0154	–	0.0129	–	0.0057	–
[3], first compound 0.006 µg/mL	–	0.339	–	0.279	–	0.146

Conditions	Bliss interaction score
[4]	0.102
[5]	-0.169
[6]	0.0512
[7]	-0.113

CC1(C)S[C@@H]2[C@H](NC(=O)[C@H](N)c3ccc(O)cc3)C(=O)N2[C@H]1C(=O)O [Amoxicillin] + C[n+]1ccc(-c2cc[n+](C)cc2)cc1 [Paraquat]
Conditions	fitness
[1], first compound 0.0625 µg/mL, partner 1.25 µg/mL	0.512
[1], first compound 0.0625 µg/mL, partner 2.5 µg/mL	0.517
[1], first compound 0.0625 µg/mL, partner 5 µg/mL	0.488
[1], first compound 0.125 µg/mL, partner 1.25 µg/mL	0.433
[1], first compound 0.125 µg/mL, partner 2.5 µg/mL	0.498
[1], first compound 0.125 µg/mL, partner 5 µg/mL	0.431
[1], first compound 0.25 µg/mL, partner 2.5 µg/mL	0.0563
[1], first compound 0.25 µg/mL, partner 5 µg/mL	0.0722
[2], first compound 0.0625 µg/mL, partner 1.25 µg/mL	0.89
[2], first compound 0.0625 µg/mL, partner 2.5 µg/mL	0.87
[2], first compound 0.0625 µg/mL, partner 5 µg/mL	0.86
[2], first compound 0.125 µg/mL, partner 1.25 µg/mL	0.861
[2], first compound 0.125 µg/mL, partner 2.5 µg/mL	0.885
[2], first compound 0.125 µg/mL, partner 5 µg/mL	0.838
[2], first compound 0.25 µg/mL, partner 5 µg/mL	0.829
[3], first compound 0.0008 µg/mL, partner 1.5 µg/mL	≥ 1
[3], first compound 0.0008 µg/mL, partner 3 µg/mL	0.961
[3], first compound 0.0008 µg/mL, partner 6 µg/mL	0.921
[3], first compound 0.0015 µg/mL, partner 1.5 µg/mL	0.988
[3], first compound 0.0015 µg/mL, partner 3 µg/mL	0.939
[3], first compound 0.0015 µg/mL, partner 6 µg/mL	0.913
[3], first compound 0.003 µg/mL, partner 1.5 µg/mL	0.96
[3], first compound 0.003 µg/mL, partner 3 µg/mL	0.847
[3], first compound 0.003 µg/mL, partner 6 µg/mL	0.864

fitness, one replicate
Conditions	partner 1.25 µg/mL	partner 1.5 µg/mL	partner 2.5 µg/mL	partner 3 µg/mL	partner 5 µg/mL	partner 6 µg/mL
[1], first compound 0.5 µg/mL	0.0127	–	0.0289	–	0.0485	–
[3], first compound 0.006 µg/mL	–	0.542	–	0.561	–	0.422

Conditions	Bliss interaction score
[4]	-0.061
[5]	0.0506
[6]	0.0578
[7]	-0.0705

CC1(C)S[C@@H]2[C@H](NC(=O)[C@H](N)c3ccc(O)cc3)C(=O)N2[C@H]1C(=O)O [Amoxicillin] + Cc1cc(NS(=O)(=O)c2ccc(N)cc2)no1 [Sulfamethoxazol]
fitness
Conditions	partner 1 µg/mL	partner 2 µg/mL	partner 4 µg/mL
[1], first compound 0.0625 µg/mL	0.445	0.506	0.522
[1], first compound 0.125 µg/mL	0.376	–	–
[1], first compound 0.25 µg/mL	0.0292	0.0368	0.035
[2], first compound 0.0625 µg/mL	0.878	0.88	0.883
[2], first compound 0.125 µg/mL	0.858	0.876	0.876
[2], first compound 0.25 µg/mL	0.81	0.847	0.844
[3], first compound 0.0008 µg/mL	0.936	0.972	0.926
[3], first compound 0.0015 µg/mL	0.882	0.928	0.878
[3], first compound 0.003 µg/mL	0.87	0.883	0.875

fitness, one replicate
Conditions	partner 1 µg/mL	partner 2 µg/mL	partner 4 µg/mL	partner 8 µg/mL
[1], first compound 0.5 µg/mL	0.015	0.0516	0.0038	–
[2], first compound 0.125 µg/mL	–	–	–	0.948
[2], first compound 0.25 µg/mL	–	–	–	0.938
[2], first compound 0.5 µg/mL	–	0.812	0.852	0.84
[3], first compound 0.006 µg/mL	0.368	0.423	0.388	–

Conditions	Bliss interaction score
[4]	-0.0805
[5]	-0.0441
[6]	-0.0589
[7]	-0.09
